Measured values from patent US20250366472A1, “1-AMINOCYCLOPROPANE-1-CARBOXYLIC ACID OXIDASE INHIBITORS (ACO-I)” (Royal Holloway and Bedford New College, priority 2022, published 2025).
pIC50: −log10 of the molar value. Read-outs that look alike come from different tables or passages of the source.

Key:
A. thaliana = A. thaliana root and hypocotyl extension after 6 days; type: in vivo; details: for effect on root and hypocotyl growth: FIG. 6A; for concentration from which dose dependent effect on root/hypocotyl growth is seen: versus DMSO control, FIG. 6B; for potency compared to AIB: hypocotyl or root extension, from table 3
Method: In these experiments, A. thaliana seeds were germinated and grown in 24 h light conditions for 6 days and root and hypocotyl length were recorded (FIG. 6A and 6B).
The IC50 values for the root or hypocotyl extension after 6 days for 5,5-dimethyl-2-(2-phenylacetyl) cyclohexane-1,3-dione (ACOi-84-16-4), 3-[(2E)-3-(4-fluorophenyl)prop-2-enoyl]-4-hydroxy-6-methyl-2H-pyran-2-one (ACOi-74-12-16) and MyA, compared to known compounds AIB and POA are presented in table 3. Images of the plant growth and the root hairs are shown in FIG. 6B for 5,5-dimethyl-2-(2-phenylacetyl) cyclohexane-1,3-dione (ACOi-84-16-4) and 3-[(2E)-3-(4-fluorophenyl)prop-2-enoyl]-4-hydroxy-6-methyl-2H-pyran-2-one (ACOi-74-12-16) and FIG. 6A for MyA and comparably for AIB and POA.

barley seedlings = assay: Drought stress recovery of barley seedlings; type: in vivo; details: 5 days growth, 9 days drought, 12 days watered
Method: (§1) The seeds of each plant were washed with 5% sodium hypochlorite for 15 minutes (with shaking at 120 rpm) and then washed three times in sterile distilled water. The seeds were placed on two layers of waterlogged 3 MM for ˜72 hours under lights at RT until hypocotyl emerged. 7-10 germinated seeds were incubated in sterile Magenta boxes containing 100 mL perlite per box, moistened with 60 ml sterile distilled water and autoclaved. The seeds were incubated in a growth cabinet with a 12 hour light/dark cycle at 22° C. until the first seedling reached approximately 5 cm height. This took approximately 4-5 days. The water was then replaced with 0.5×Hoagland solution with the test compounds (or DMSO for control samples) for 24 hour (Hoagland's No2 Basal salt mixture, Sigma, H2395, use 1.6 g/L in sterile water and autoclaved), and returned to growth cabinet. The media was then removed, the perlite was rinsed twice with sterile distilled water and the solution was replace with 35 ml 0.5 ×Hoaglands solution and returned to the growth cabinet for 24 hours.
The no drought sample was then grown in 0.5×Hoaglands solution and the solution was topped up daily.
The drought samples were exposed to drought conditions for 9 days by removing the media and returned to the growth cabinet. At recovery, 0.5×Hoaglands solution was added back to the drought sample Magenta boxes, up to the top of the perlite and this level was maintained during recovery. The plant recovery over time (up to 19 days post rescue) was recorded and the photographs from the end of the experiment are illustrated in FIG. 8, FIG. 9 and FIG. 11.
10 μM of 3-[(2E)-3-(4-fluorophenyl)prop-2-enoyl]-4-hydroxy-6-methyl-2H-pyran-2-one (labelled as 16B), 10 μM of 5,5-dimethyl-2-(2-phenylacetyl) cyclohexane-1,3-dione (labelled as 4B) and […] of AIB and 500 μM of POA were tested on barley seedlings.

D. discoideum cells = assay: Inhibition of D. discoideum unicellular growth (wild type); type: cell-based
Method: The unicellular growth rate and multicellular of D. discoideum cells on exposure to MyA was tested and the results are illustrated in FIG. 1 and FIG. 2.
D. discoideum cells were divided by binary fission in nutrient-rich media, initially with a lag phase (0-120 h), and then an exponential phase. The D. discoideum cells were then exposed to MyA at concentrations of 0 μm, 1 μm, 10 μm, 15 μm, 25 μm, 50 μm and 100 μm.

[1] = tested on: ACO ablated D. discoideum cells (ACO-); assay: Growth sensitivity of ACO-mutant D. discoideum cells to MyA; type: cell-based
From the text: The cell and developmental role of the D. discoideum ACO protein were investigated. FIG. 3C illustrates the resistance to the growth and developmental inhibitory effect of MyA on wild type D. discoideum cells (WT) and ACO ablated D. discoideum cells (ACO-).

D. discoideum WT cells = assay: D. discoideum multicellular development, block at mound stage; type: cell-based
Method: The effect of MyA on multicellular development of D. discoideum was measured. The MyA was tested at a concentration of 100 μM.
The effect of ACO loss on multicellular development was assessed. ACO-D. discoideum mutants were engineered and compared to standard wild type D. discoideum cells.

[2] = tested on: csA, cAR1, pspA, ecmA expression; assay: Developmental gene expression in D. discoideum by qPCR; type: cell-based; details: 100 μM, 0 to 20 hours
Method: To provide quantitative analysis of the developmental effects of MyA, wild type cells were induced to develop on nitrocellulose filters for time periods between 0 and 20 hours, using cells under solvent only conditions, in the presence of MyA (100 μM), or in the presence of MyA and CEPA. Developmental gene expression associated with early aggregation (csA), […], and in late development (ecmA) were assessed using qPCR. […] Similar delays in peak gene expression were also seen for carA (peak 4 h), and pspA (peak 12 h), and ecmA (peak 20 h), following MyA treatment, and these delays were rescued by addition of exogenous ethylene. These experiments confirm a MyA-dependent delay in D. discoideum development that is rescued by exogenous ethylene application, consistent with a role for MyA in inhibiting ACO activity and slowing crop maturation.

ethylene production = assay: Ethylene production of D. discoideum cells, headspace GCMS; type: cell-based; details: 500 μM
Method: Wild type cells in the presence or absence of MyA (500 μM), or ACO-cells were maintained in sealed small flasks with limited head space over 36 h, and headspace gas was taken at 6-hour intervals and analysed by GCMS.

Carnations = assay: Cut carnation flower senescence (flower size); type: in vivo; details: for slowing of flower senescence versus control: 0.01 mM or 0.02 mM, flower size after 9 days; for performance versus POA and AIB: 0.01/0.02 mM versus POA 0.5/1 mM, AIB 5/10 mM
Method: Carnations were cut to approximately 5 cm long stems and placed in a solution wherein the solution comprised 5 mL water and either no additional components (control), 0.01 mM or 0.02 mM of 5,5-dimethyl-2-(2-phenylacetyl) cyclohexane-1,3-dione (labelled as 4B) or 3-[(2E)-3-(4-fluorophenyl)prop-2-enoyl]-4-hydroxy-6-methyl-2H-pyran-2-one (labelled as 16B) or 0.5 mM or 1 mM of POA or 10 mM or 5mM of AIB were added. The flower size coverage was measured and the petal shrinkage, or reduction in flower size, is used as an indicator of flower senescence.

wheat seedlings = assay: Drought stress recovery of wheat seedlings; type: in vivo; details: 10 μM, 9 days drought, 19 days recovery
Method: as §1, with “The media was then removed, the perlite was rinsed twice with sterile distilled water and the solution was replace with 35 ml 0.5 ×Hoaglands solution and returned to the growth cabinet for 24 hours.” left out
The drought samples were exposed to drought conditions for 9 days by removing the media and returned to the growth cabinet. […] The plant recovery over time (up to 19 days post rescue) was recorded and the photographs from the end of the experiment are illustrated in FIG. 8, FIG. 9 and FIG. 11.
The drought testing was repeated with wheat seedlings and the results are shown in FIGS. 9 and 10 wherein the data was measured following 5 days of growth, 9 days of drought and 19 days of recovery. […]

rye seedlings = assay: Drought stress recovery of rye seedlings; type: in vivo; details: 10 μM, 9 days drought
Method: as §1
The no drought sample was then grown in 0.5×Hoaglands solution and the solution was topped up daily. […]
The drought testing was repeated with rye seedlings and the results are shown in FIG. 11 wherein the data was measured following 5 days of growth, 9 days of drought and 19 days of recovery. […]

[3] = Arabidopsis thaliana, 144 h, Root, 6 days, read-out: IC50 root extension
[4] = Hypocotyl, 6 days, read-out: IC50 hypocotyl extension
[5] = Arabidopsis thaliana, 144 h, Hypocotyl, 6 days, read-out: IC50 hypocotyl extension

Row | SMILES | effect on root and hypocotyl growth (A. thaliana; 6 days) | pIC50 (A. thaliana; [3]) | pIC50 (A. thaliana; [4]) | pIC50 (A. thaliana; [5]) | efficacy in development block model (D. discoideum WT cells; 100 μM) | concentration from which dose dependent effect on root/hypocotyl growth is seen (A. thaliana; 6 days) [μm] | potency compared to AIB (A. thaliana) | slowing of flower senescence versus control (Carnations) | performance versus POA and AIB (Carnations) | recovery after drought (barley seedlings; 10 μM) | also measured
1 | O=C(O)c1cnccn1 [POA, pyrazinecarboxylic acid, reference compound] | dose-dependent reduction | 3.67 | 3.74 |  |  |  |  |  |  |  | recovery after drought (barley seedlings; 500 μM): did not show positive result
2 | CC1C(=O)C(C(=O)CCc2ccccc2)C(=O)C(C)(C)C1=O (centres unmarked) [MyA, 2,2,4-trimethyl-6-(3-phenylpropanoyl) cyclohexane-1,3,5-trione] | comparative reduction | 4.27 |  | 4.23 |  |  |  |  |  |  | effect on unicellular growth (D. discoideum cells; 10 μM, P<0.05): significant reduction; effect on unicellular growth (D. discoideum cells; 100 μM): block in growth; pIC50 (D. discoideum cells; Dictyostelium discoideum, wild type D. discoideum, secondary plot of normalised growth rate): 5.12; reduction in potency in the ACO-mutant versus wild type [1]: four-fold; pIC50 ([1]; Dictyostelium discoideum, ACO- D. discoideum cells): 4.52; effect on multicellular development (D. discoideum WT cells; 100 μM, 24 hours): later stages of development were delayed; development after extended incubation (D. discoideum WT cells; 100 μM, 36 hours): developed into fully mature fruiting bodies; lethality of high dose (D. discoideum WT cells; 100 μM, 36 hours): not lethal; rescue of developmental delay by exogenous ethylene (CEPA) (D. discoideum WT cells; MyA 100 μM plus CEPA): partially rescued; peak expression of developmental genes (csA, carA, pspA, ecmA) [2]: delayed; decrease in ethylene production (ethylene production; 12 hours, P=0.031): 39.5%; decrease in ethylene production (ethylene production; 36 hours, P=0.0025): 37.9%; lowest concentration shown to have an effect on growth (A. thaliana; root and hypocotyl, 6 days, 24 h light): 0.025 mM; lowest effective concentration, times lower than AIB (A. thaliana; versus AIB): 20 times; lowest effective concentration, times lower than POA (A. thaliana; versus POA): 4 times
3 | CC(C)(N)C(=O)O [AIB, a-aminoisobutyric acid, reference compound] | dose-dependent reduction |  | 2.37 |  |  |  |  |  |  |  | pIC50 (A. thaliana; Root, 6 days, read-out: IC50 root extension): 2.79; recovery after drought (barley seedlings; 2,000 μM): did slightly better; recovery after drought (barley seedlings; 10,000 μM): did better still
4 | Cc1cc(O)c(C(=O)/C=C/c2ccc(F)cc2)c(=O)o1 [ACOi-74-12-16, 3-[(2E)-3-(4-fluorophenyl)prop-2-enoyl]-4-hydroxy-6-methyl-2H-pyran-2-one] |  | 5.99 |  | 6.10 | potent efficacy | 5 | 1580 fold | significant effect | comparable performance | comparable seedling height to the control sample which had been watered throughout the duration | recovery after drought versus untreated drought control (wheat seedlings): improved recovery; seedling height and mass versus drought control (wheat seedlings; FIG. 10): increased height and mass; recovery after drought versus untreated drought control (rye seedlings; 19 days recovery): improved recovery; recovery after drought (rye seedlings; 23 days recovery): continues to recover
5 | CC1(C)CC(=O)C(C(=O)Cc2ccccc2)C(=O)C1 [ACOi-84-16-4, 5,5-dimethyl-2-(2-phenylacetyl)cyclohexane-1,3-dione] |  | 5.16 |  | 5.09 | potent efficacy | 5 | over 5400 fold | significant effect | comparable performance | comparable growth to the same treated with 10,000 μM AIB | 
